From ChEMBL document CHEMBL2150937, “Elaiomycins D-F, antimicrobial and cytotoxic azoxides from Streptomyces sp. strain HKI0708” (J Nat Prod, 2012)
Converted amounts (≈) assume the structure as drawn.

Key:
[1] = system: Aspergillus fumigatus; assay: Antifungal activity against Aspergillus fumigatus ATCC 46645 assessed as zone of inhibition at 50 ug/disc after 24 hrs by agar diffusion assay; type: functional; settings: ATCC 46645, 24 h, read-out: IZ
[2] = system: Aspergillus terreus; assay: Antifungal activity against amphotericin-resistant Aspergillus terreus DSM 826 assessed as zone of inhibition at 50 ug/disc after 24 hrs by agar diffusion assay; type: functional; settings: DSM 826, 24 h, read-out: IZ
[3] = system: Aspergillus niger; assay: Antifungal activity against Aspergillus niger DSM 737 assessed as zone of inhibition at 50 ug/disc after 24 hrs by agar diffusion assay; type: functional; settings: DSM 737, 24 h, read-out: IZ
[4] = Cytotoxicity against human CXF HT29 cells by propidium iodide-based fluorescence assay; type: functional, cell-based; settings: HT-29
[5] = Cytotoxicity against human GXF251L cells by propidium iodide-based fluorescence assay; type: functional, cell-based; settings: GXF 251L
[6] = Cytotoxicity against human LXFA 629L cells by propidium iodide-based fluorescence assay; type: functional, cell-based
[7] = Cytotoxicity against human LXFL 529L cells by propidium iodide-based fluorescence assay; type: functional, cell-based
[8] = Cytotoxicity against human MAXF 401NL cells by propidium iodide-based fluorescence assay; type: functional, cell-based
[9] = Cytotoxicity against human MEXF 462NL cells by propidium iodide-based fluorescence assay; type: functional, cell-based
[10] = Cytotoxicity against human OVXF 899L cells by propidium iodide-based fluorescence assay; type: functional, cell-based
[11] = Cytotoxicity against human PAXF 1657L cells by propidium iodide-based fluorescence assay; type: functional, cell-based
[12] = Cytotoxicity against human PRXF 22Rv1 cells by propidium iodide-based fluorescence assay; type: functional, cell-based, CWR22R
[13] = Cytotoxicity against human PXF 1752L cells by propidium iodide-based fluorescence assay; type: functional, cell-based
[14] = Cytotoxicity against human RXF 486L cells by propidium iodide-based fluorescence assay; type: functional, cell-based
[15] = Cytotoxicity against human UXF 1138L cells by propidium iodide-based fluorescence assay; type: functional, cell-based
[16] = system: HUVEC; assay: Antiproliferative activity against HUVEC; type: functional; settings: Homo sapiens
[17] = system: K562; assay: Antiproliferative activity against human K562 cells; type: functional
[18] = system: HeLa; assay: Cytotoxicity against human HeLa cells; type: functional
[19] = system: Bacillus subtilis; assay: Antibacterial activity against Bacillus subtilis 6633 B1 assessed as zone of inhibition at 50 ug/disc after 24 hrs by agar diffusion assay; type: functional; settings: 6633 B1, 24 h, read-out: IZ
[20] = system: Staphylococcus aureus; assay: Antibacterial activity against Staphylococcus aureus 511 B3 assessed as zone of inhibition at 50 ug/disc after 24 hrs by agar diffusion assay; type: functional; settings: 511 B3, 24 h, read-out: IZ
[21] = system: Escherichia coli; assay: Antibacterial activity against Escherichia coli 458 B4 assessed as zone of inhibition at 50 ug/disc after 24 hrs by agar diffusion assay; type: functional; settings: 458 B4, 24 h, read-out: IZ
[22] = system: Pseudomonas aeruginosa; assay: Antibacterial activity against Pseudomonas aeruginosa SG 137 B7 assessed as zone of inhibition at 50 ug/disc after 24 hrs by agar diffusion assay; type: functional; settings: SG 137 B7, 24 h, read-out: IZ
[23] = system: Pseudomonas aeruginosa; assay: Antibacterial activity against Pseudomonas aeruginosa K 799/61 B9 assessed as zone of inhibition at 50 ug/disc after 24 hrs by agar diffusion assay; type: functional; settings: K 799/61 B9, 24 h, read-out: IZ
[24] = system: Staphylococcus aureus; assay: Antibacterial activity against methicillin-resistant Staphylococcus aureus 134/93 R9 assessed as zone of inhibition at 50 ug/disc after 24 hrs by agar diffusion assay; type: functional; settings: 134/93 R9, 24 h, read-out: IZ
[25] = system: Enterococcus faecalis; assay: Antibacterial activity against vancomycin-resistant Enterococcus faecalis 1528 R10 assessed as zone of inhibition at 50 ug/disc after 24 hrs by agar diffusion assay; type: functional; settings: 1528 R10, 24 h, read-out: IZ
[26] = system: Mycolicibacterium vaccae; assay: Antibacterial activity against Mycobacterium vaccae 10670 M4 assessed as zone of inhibition at 50 ug/disc after 24 hrs by agar diffusion assay; type: functional; settings: 10670 M4, 24 h, read-out: IZ
[27] = system: Sporobolomyces salmonicolor; assay: Antifungal activity against Sporidiobolus salmonicolor 549 H4 assessed as zone of inhibition at 50 ug/disc after 24 hrs by agar diffusion assay; type: functional; settings: 549 H4, 24 h, read-out: IZ
[28] = system: Candida albicans; assay: Antifungal activity against Candida albicans H8 assessed as zone of inhibition at 50 ug/disc after 24 hrs by agar diffusion assay; type: functional; settings: H8, 24 h, read-out: IZ
[29] = system: Penicillium chrysogenum; assay: Antifungal activity against Penicillium notatum JP36 P1 assessed as zone of inhibition at 50 ug/disc after 24 hrs by agar diffusion assay; type: functional; settings: JP36 P1, 24 h, read-out: IZ

CCCCCC/C=C\[N+]([O-])=N\[C@@H](COC)[C@H](C)O [ELAIOMYCIN]
zone of inhibition at 50 µg/disc [1]: 0 mm
zone of inhibition at 50 µg/disc [2]: 0 mm
zone of inhibition at 50 µg/disc [3]: 0 mm
IC50 [4]: 9.72 µM
IC50 [5]: 7.97 µM
IC50 [6]: 9.24 µM
IC50 [7]: 14.7 µM
IC50 [8]: 10.8 µM
IC50 [9]: 10.4 µM
IC50 [10]: 11.8 µM
IC50 [11]: 20.2 µM
IC50 [12]: 9.21 µM
IC50 [13]: 10.2 µM
IC50 [14]: > 30 µM
IC50 [15]: 14.7 µM
GI50 [16]: 30.4 µg/mL (≈ 118 µM)
GI50 [17]: > 50 µg/mL
CC50 [18]: 35.1 µg/mL (≈ 136 µM)
zone of inhibition at 50 µg/disc [19]: 10 mm
zone of inhibition at 50 µg/disc [20]: 0 mm
zone of inhibition at 50 µg/disc [21]: 0 mm
zone of inhibition at 50 µg/disc [22]: 0 mm
zone of inhibition at 50 µg/disc [23]: 0 mm
zone of inhibition at 50 µg/disc [24]: 0 mm
zone of inhibition at 50 µg/disc [25]: 0 mm
zone of inhibition at 50 µg/disc [26]: 14 mm
zone of inhibition at 50 µg/disc [27]: 12 mm
zone of inhibition at 50 µg/disc [28]: 0 mm
zone of inhibition at 50 µg/disc [29]: 0 mm

CCCCCCCC/[N+]([O-])=N/[C@@H](COC)C(N)=O [ELAIOMYCIN H]
zone of inhibition at 50 µg/disc [1]: 13 mm
zone of inhibition at 50 µg/disc [2]: 15 mm
zone of inhibition at 50 µg/disc [3]: 0 mm
IC50 [4]: 1.15 µM
IC50 [5]: 4.65 µM
IC50 [6]: 1.2 µM
IC50 [7]: 8.57 µM
IC50 [8]: 3.74 µM
IC50 [9]: 3.95 µM
IC50 [10]: 9.84 µM
IC50 [11]: 5.42 µM
IC50 [12]: 8.01 µM
IC50 [13]: 5.99 µM
IC50 [14]: 9.49 µM
IC50 [15]: 8.88 µM
GI50 [16]: 38.2 µg/mL (≈ 147 µM)
GI50 [17]: 37.5 µg/mL (≈ 145 µM)
CC50 [18]: 40.5 µg/mL (≈ 156 µM)
zone of inhibition at 50 µg/disc [19]: 0 mm
zone of inhibition at 50 µg/disc [20]: 0 mm
zone of inhibition at 50 µg/disc [21]: 0 mm
zone of inhibition at 50 µg/disc [22]: 0 mm
zone of inhibition at 50 µg/disc [23]: 0 mm
zone of inhibition at 50 µg/disc [24]: 0 mm
zone of inhibition at 50 µg/disc [25]: 0 mm
zone of inhibition at 50 µg/disc [26]: 12 mm
zone of inhibition at 50 µg/disc [27]: 14 mm
zone of inhibition at 50 µg/disc [28]: 0 mm
zone of inhibition at 50 µg/disc [29]: 0 mm

COC[C@H](/N=[N+](\[O-])CCCCCCC(C)=O)[C@H](C)O [ELAIOMYCIN G]
zone of inhibition at 50 µg/disc [1]: 0 mm
zone of inhibition at 50 µg/disc [2]: 0 mm
zone of inhibition at 50 µg/disc [3]: 0 mm
GI50 [16]: > 50 µg/mL
GI50 [17]: > 50 µg/mL
CC50 [18]: > 50 µg/mL
zone of inhibition at 50 µg/disc [19]: 0 mm
zone of inhibition at 50 µg/disc [20]: 0 mm
zone of inhibition at 50 µg/disc [21]: 0 mm
zone of inhibition at 50 µg/disc [22]: 0 mm
zone of inhibition at 50 µg/disc [23]: 0 mm
zone of inhibition at 50 µg/disc [24]: 0 mm
zone of inhibition at 50 µg/disc [25]: 0 mm
zone of inhibition at 50 µg/disc [26]: 11 mm
zone of inhibition at 50 µg/disc [27]: 13 mm
zone of inhibition at 50 µg/disc [28]: 0 mm
zone of inhibition at 50 µg/disc [29]: 0 mm

COC[C@H](/N=[N+]([O-])/C=C/CCCCC(C)=O)[C@H](C)O [ELAIOMYCIN D]
zone of inhibition at 50 µg/disc [1]: 0 mm
zone of inhibition at 50 µg/disc [2]: 0 mm
zone of inhibition at 50 µg/disc [3]: 0 mm
GI50 [16]: > 50 µg/mL
GI50 [17]: > 50 µg/mL
CC50 [18]: > 50 µg/mL
zone of inhibition at 50 µg/disc [19]: 0 mm
zone of inhibition at 50 µg/disc [20]: 0 mm
zone of inhibition at 50 µg/disc [21]: 0 mm
zone of inhibition at 50 µg/disc [22]: 0 mm
zone of inhibition at 50 µg/disc [23]: 0 mm
zone of inhibition at 50 µg/disc [24]: 0 mm
zone of inhibition at 50 µg/disc [25]: 0 mm
zone of inhibition at 50 µg/disc [26]: 0 mm
zone of inhibition at 50 µg/disc [27]: 0 mm
zone of inhibition at 50 µg/disc [28]: 0 mm
zone of inhibition at 50 µg/disc [29]: 0 mm

CCCCCC(O)/C=C/[N+]([O-])=N/[C@@H](COC)[C@H](C)O (stereo partly specified) [ELAIOMYCIN E]
zone of inhibition at 50 µg/disc [1]: 0 mm
zone of inhibition at 50 µg/disc [2]: 0 mm
zone of inhibition at 50 µg/disc [3]: 0 mm
GI50 [16]: 31.2 µg/mL (≈ 114 µM)
GI50 [17]: 30.3 µg/mL (≈ 110 µM)
CC50 [18]: > 50 µg/mL
zone of inhibition at 50 µg/disc [19]: 10 mm
zone of inhibition at 50 µg/disc [20]: 0 mm
zone of inhibition at 50 µg/disc [21]: 0 mm
zone of inhibition at 50 µg/disc [22]: 10 mm
zone of inhibition at 50 µg/disc [23]: 0 mm
zone of inhibition at 50 µg/disc [24]: 0 mm
zone of inhibition at 50 µg/disc [25]: 10 mm
zone of inhibition at 50 µg/disc [26]: 0 mm
zone of inhibition at 50 µg/disc [27]: 0 mm
zone of inhibition at 50 µg/disc [28]: 0 mm
zone of inhibition at 50 µg/disc [29]: 0 mm

CCCCCCCC/[N+]([O-])=N/[C@@H](COC)[C@H](C)O [ELAIOMYCIN F]
zone of inhibition at 50 µg/disc [1]: 0 mm
zone of inhibition at 50 µg/disc [2]: 0 mm
zone of inhibition at 50 µg/disc [3]: 0 mm
GI50 [16]: > 50 µg/mL
GI50 [17]: > 50 µg/mL
CC50 [18]: 30.5 µg/mL (≈ 117 µM)
zone of inhibition at 50 µg/disc [19]: 0 mm
zone of inhibition at 50 µg/disc [20]: 0 mm
zone of inhibition at 50 µg/disc [21]: 0 mm
zone of inhibition at 50 µg/disc [22]: 0 mm
zone of inhibition at 50 µg/disc [23]: 0 mm
zone of inhibition at 50 µg/disc [24]: 0 mm
zone of inhibition at 50 µg/disc [25]: 0 mm
zone of inhibition at 50 µg/disc [26]: 0 mm
zone of inhibition at 50 µg/disc [27]: 0 mm
zone of inhibition at 50 µg/disc [28]: 0 mm
zone of inhibition at 50 µg/disc [29]: 0 mm
